The source of these data is US20090215895A1, “Therapeutic and carrier molecules” (PEPLIN BIOLIPIDS PTY LTD, priority 2004, published 2009).

Entries after “also recorded” stand apart in the source; their conditions may differ.

One assay has as its system neutrophil NADPH oxidase. In words: Neutrophil respiratory burst (NADPH oxidase activation, chemiluminescence). Format: cell-based, human. The settings on record: human neutrophils, up to 30 μmol/l. Here is the method:
The structure of PT2 is shown in (c) above. In this screening assay, neutrophils were prepared from the blood of healthy volunteers. Freshly collected blood was layered onto a Hypaque-Ficoll medium of density 1.114 and centrifuged at 400 g for 30 mins at room temperature. After centrifugation, the leukocytes resolved into two distinct bands, with neutrophils being present in the second band (Ferrante and Thong, J. Immun. Methods 48:81-85, 1982).
Activation of the neutrophil NADPH oxidase was measured by lucigenin-dependent chemiluminescence following a 10 min incubation of PT2 (20 μM, final concentration) with 1×10^6 neutrophils from different donors (Power et al, J. Immunol. 159:2952-2959, 1997). Arachidonic acid (20:4, n-6) was used as a positive stimulator of the oxidase
Neutrophil respiratory burst was determined as previously described (Li et al, J. Clin. Invest. 97:1605-1609, 1996).

A further assay has as its system ICAM-1. The experiment in a line: Adhesion molecule expression on HUVEC (ELISA). The settings on record: for Suppression of TNF-α-induced ICAM-1 expression on HUVEC: 60 min pre-treatment. In kind it is cell-based, human. Here is the method:
(§1) FIG. 13 is a representation showing effect of MP3 (β-oxa-23:4n-6) and 20:4n-6 on time-related changes in TNF-α-induced E-selectin, ICAM-1 and VCAM-1 expression on HUVEC. HUVEC were pre-treated with 20 μmol/l β-oxa-23:4n-6 (closed triangles), 20 μmol/l 20:4n-6 (open squares), or DPC (control) for 60 min and then further incubated with TNF-α (125 U/200 μl medium) for up to 24 hr. The expression of E-selectin, ICAM-1 and VCAM-1 adhesion molecules was determined by ELISA. The results are expressed as % of control and represent the mean±SEM of three separate experiments each performed in triplicate. * p<0.05, **p<0.01, ***p<0.001, for significant differences between pre-treatment with fatty acid and corresponding control at a particular time point (one-way analysis of variance followed by the Dunnett test for multiple comparisons). Inset: The effect of β-oxa-23:4n-6 on TNF-α-induced expression of E-selectin mRNA in HUVEC. HUVEC were pre-incubated with β-oxa-23:4n-6 (20 μmol/l) or DPC (control) in 1 ml of medium at 37° C. for 60 min. After the addition of TNF-α, the cells were further incubated at 37° C. for 2 hr. E-selectin mRNA expression was then determined and the results expressed as relative %. Results are the mean±SEM of three separate experiments each performed in quadruplicate. *p<0.0001, for significant differences between pre-treatment with β-oxa-23:4n-6, and control (two-tailed Student's t-test for unpaired data).
(§2) HUVEC were stimulated with TNF, bacterial lipopolysaccharide (LPS) or PMA for 24 hr. Expression of E-selectin, ICAM-1 and VCAM-1 was determined by an enzyme-linked immunosorbent assay (ELISA) or as mRNA using a slot blot technique (Huang et al 1997 supra).
(In general: ELISA stands for enzyme-linked immunosorbent assay.)

Another assay concerns VCAM-1. The experiment in a line: Adhesion molecule expression on HUVEC (ELISA). Format: cell-based, human. The settings on record: for Suppression of TNF-α-induced VCAM-1 expression on HUVEC: 60 min pre-treatment. Here is the method:
as §1, §2

For a further assay, the system named is IκBα. In words: TNF-induced degradation of IκBα in HUVEC (Western blot). Format: cell-based. The settings on record: Homo sapiens, 20 μmol/l, 30 min pre-treatment, TNF 10 min. Here is the method:
FIG. 17 is a representation showing (A) the effect of MP3 (β-oxa 23:4n-6) and DHA on TNF-induced degradation of IκBα in HUVEC. Cells were pre-treated with the fatty acids (20 μmol/l) for 30 min and then stimulated with TNF (125 U/ml) for 10 min. After cell lysis the proteins were analyzed by Western blots using anti-IκBα antibodies. (B) The effects of β-oxa-23:4n-6 on TNF-induced activation of transcriptional factor, NFκB in HUVEC. Cells were pre-treated with β-oxa-23:4n-6 (20 μmol/l) for 30 min and then stimulated with TNF for 2 hr. After cell lysis, nuclear fractions were prepared, nuclear proteins separated by SDS PAGE (12% w/v gel), transferred to nitrocellulose and probed with an anti-NFκB p65 antibody (Santa Cruz). […] (C) The effect of β-oxa 23:4n-6 on TNF-stimulated activation of IKK. Cells were pre-treated with β-oxa 23:4n-6 (20 μmol/l) for 30 min and then stimulated with TNF for 5 min. After cell lysis IKK was immunoprecipitated with anti-IKKα antibody and kinase activity determined. […]
Proteins (50 μg) were separated by SDS PAGE (12% w/v gel), transferred to nitrocellulose and probed with an anti-NFκB p65 or anti-IκBα antibody (Santa Cruz Biotech, Santa Cruz, Calif.). Immunocomplexes were detected by enhanced chemiluminescence (Hii et al, 1998 supra).
On the technique in general: A western blot detects proteins with antibodies after separation by electrophoresis.

The next assay relates to IKK. In words: TNF-stimulated activation of IKK in HUVEC (immunoprecipitation kinase assay). Format: cell-based, human. The settings on record: 20 μmol/l, 30 min, TNF 5 min. Here is the method:
FIG. 17 is a representation showing (A) the effect of MP3 (β-oxa 23:4n-6) and DHA on TNF-induced degradation of IκBα in HUVEC. Cells were pre-treated with the fatty acids (20 μmol/l) for 30 min and then stimulated with TNF (125 U/ml) for 10 min. After cell lysis the proteins were analyzed by Western blots using anti-IκBα antibodies. (B) The effects of β-oxa-23:4n-6 on TNF-induced activation of transcriptional factor, NFκB in HUVEC. Cells were pre-treated with β-oxa-23:4n-6 (20 μmol/l) for 30 min and then stimulated with TNF for 2 hr. After cell lysis, nuclear fractions were prepared, nuclear proteins separated by SDS PAGE (12% w/v gel), transferred to nitrocellulose and probed with an anti-NFκB p65 antibody (Santa Cruz). […] (C) The effect of β-oxa 23:4n-6 on TNF-stimulated activation of IKK. Cells were pre-treated with β-oxa 23:4n-6 (20 μmol/l) for 30 min and then stimulated with TNF for 5 min. After cell lysis IKK was immunoprecipitated with anti-IKKα antibody and kinase activity determined.
IKK was immunoprecipitated with anti-IKKα (M-280) antibody (sc-7182, Santa Cruz, Biotech) and kinase activity determined using GST-IκBA (residues 5-55) as previously described (Lee et al, 1998 supra). Proteins were fractionated by SDS PAGE and radioactivity associated with GST-IκBα (residues 5-55) determined using an instant imager.

The mark [1] stands for this setting: 20 μmol/l, listed as β-oxa-23:4n-6.

What is called inhibition is the change of the read-out against control, counted positive when it falls.

On to `CCCCC/C=C\C/C=C\C/C=C\C/C=C\CCCCOCC(=O)O` [MP3, β-oxa-23:4n-6], for which, in the assay on neutrophil NADPH oxidase, the “Stimulation of the neutrophil respiratory burst (chemiluminescence response)” value was “relatively poor at stimulating this response; also recorded: failed to cause any significant respiratory burst”. For the same compound, the results for the “Suppression of TNF-α-induced ICAM-1 expression on HUVEC” value with ICAM-1 (20 μmol/l) and in the assay on ICAM-1 (setting [1]) were “better than docosahexaenoic acid (22:6n-3) at suppressing” and “inhibited the expression”, respectively. Also, the “Time of cytokine treatment at maximum inhibition of ICAM-1 expression” value with ICAM-1 (20 μmol/l, TNF-α) turned out to be 6 h. Moreover, in the assay with ICAM-1 (HUVEC), the “Inhibition of LPS and PMA-induced up-regulation of ICAM-1” value is “inhibited LPS and PMA-induced, up-regulation”. The “Suppression of TNF-α-induced VCAM-1 expression on HUVEC” value in the assay on VCAM-1 (20 μmol/l) was “better than docosahexaenoic acid (22:6n-3) at suppressing”; in the assay with VCAM-1 (setting [1]) it was “inhibited the expression”. Also, the “Time of cytokine treatment at maximum inhibition of VCAM-1 expression” value with VCAM-1 (20 μmol/l, TNF-α) was determined as 12 h. In the assay on VCAM-1 (HUVEC), the “Inhibition of LPS and PMA-induced up-regulation of VCAM-1” value was “inhibited LPS and PMA-induced, up-regulation”. Besides, in the assay with IκBα, the inhibition at 20 µM is more than 92%. For the same compound, the entries for the “TNF-stimulated activation of IKK / IκB kinase-NFκB signalling pathway” value with IKK and in the assay with IKK (listed as β-oxa 23:4n-6) were “inhibits the ability of TNF to activate” and “significantly inhibited”, respectively.
